Results as given in patent publication US20050265999A1, “Modulation of 5-HT2 receptors as a treatment for cardiovascular diseases” (Myogen, Inc., priority 2003, published 2005).

Assays:
[1] = test system: neonatal rat ventricular myocytes (NRVM); assay: Affymetrix gene expression screening of NRVM; format: cell-based; set-up: dose or concentration left out as unconfirmed
From the text: Affymetrix screening. RNA was extracted from unstimulated NRVM and hypertrophic NRVM exposed to compound 18264 […] (Trizol Reagent, GibcoBRL). RNA samples were converted to biotin-labeled cRNA and hybridized to Rat expression arrays (Affymetrix GeneChip). Arrays were then washed, scanned and quantitated as per manufacturer's instructions.

Adenosine A3 = target: T1, Adenosine A3 (Homo sapiens, UniProt P0DMS8); assay: Radioligand receptor binding assay (MDS Pharma); conditions: 10 μM compound, n=2
T1 construct: purchased MDS Pharma services 200720
T1 sequence (P0DMS8 1-318): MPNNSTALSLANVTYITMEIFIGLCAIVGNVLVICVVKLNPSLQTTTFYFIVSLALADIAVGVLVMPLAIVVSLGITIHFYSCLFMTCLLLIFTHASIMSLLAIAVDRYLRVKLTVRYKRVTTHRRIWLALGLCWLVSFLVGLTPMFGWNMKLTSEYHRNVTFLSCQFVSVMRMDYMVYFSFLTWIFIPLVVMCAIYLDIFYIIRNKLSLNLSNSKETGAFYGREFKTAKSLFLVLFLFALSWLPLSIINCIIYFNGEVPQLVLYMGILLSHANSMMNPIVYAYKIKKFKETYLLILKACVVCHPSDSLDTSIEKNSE
Experimental: (§1) Receptor binding assays. Receptor binding assays were performed by MDS Pharma services. Assays included: Adenosine A1 (cat# 200510), Adenosine A2A (cat# 200610), Adenosine A3 (cat# 200720), Adrenergic alpha 1 (cat# 203500), Imidazoline 12 central (cat# 241000), Imidazoline I2 peripheral (cat# 241100), Inositol triphosphate (cat# 242500), Phorbol Ester (cat# 264500), 5-HT 2B (cat# 271700), and 5-HT 4 (cat# 272000).
(§2) • Summary of radioligand binding assays for 11 receptors. Data represent % inhibition of ligand binding in the presence of 10 μM 18264 (n=2).

Phorbol Ester = assay: Radioligand receptor binding assay (MDS Pharma); conditions: 10 μM compound, n=2
Experimental: as §1, §2

Adenosine A1 = target: T2, Adenosine A1 (Homo sapiens, UniProt P30542); assay: Radioligand receptor binding assay (MDS Pharma); conditions: 10 μM compound, n=2
T2 construct: purchased MDS Pharma services 200510
T2 sequence (P30542 1-326): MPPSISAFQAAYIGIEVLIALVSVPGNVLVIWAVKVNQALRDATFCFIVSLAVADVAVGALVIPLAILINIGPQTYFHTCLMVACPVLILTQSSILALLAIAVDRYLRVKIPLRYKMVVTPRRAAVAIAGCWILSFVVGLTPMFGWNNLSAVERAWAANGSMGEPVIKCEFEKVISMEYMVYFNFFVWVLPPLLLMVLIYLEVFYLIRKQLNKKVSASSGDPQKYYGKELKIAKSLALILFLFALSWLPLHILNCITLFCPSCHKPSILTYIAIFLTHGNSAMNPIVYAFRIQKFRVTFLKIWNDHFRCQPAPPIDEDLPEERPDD
Experimental: as §1, §2

[2] = test system: neonatal rat ventricular myocytes (NRVM); assay: Cell volume measurement (Coulter counter) of NRVM; format: cell-based; conditions: NRVM stimulated with compound alone
Experimental: NRVM culture. For preparations of neonatal rat ventricular myocytes (NRVMs), hearts were removed from 10-20 newborn (1-2 days old) Sprague-Dawley rats. Isolated ventricles were pooled, minced and dispersed by three 20-min incubations at 37° C. in Ads buffer (116 mM NaCl, 20 mM HEPES, 10 mM NaH2PO4, 5.5 mM glucose, 5 mM KCl, 0.8 mM MgSO4, pH 7.4) containing collagenase Type II (65 units/ml, Worthington) and pancreatin (0.6 mg/ml, GibcoBRL). Dispersed cells were applied to a discontinuous gradient of 40.5% and 58.5% (v/v) Percoll (Amersham Biosciences), centrifuged, and myocytes collected from the interface layer. Myocyte preparations were pre-plated in Dulbecco's modified Eagle's medium (DMEM, Cellgro), supplemented with 10% (v/v) fetal bovine serum (FBS, HyClone), 4 mM L-glutamine and 1% penicillin/streptomycin for 1 hour at 37° C. to reduce fibroblast contamination, then plated at a density of 2.5×10^5 cells per well on 6-well tissue culture plates (or 10,000 cells/well on 96-well tissue culture plates) coated with a 0.2% (w/v) gelatin solution. […]
Hypertrophy and toxicity assays. Primary hypertrophy endpoints for NRVM included quantitation of: ANF secretion, total cellular protein and cell volume. ANF in media supernatants was quantitated by competitive ELISA using a monoclonal anti-ANF antibody (Biodesign) and a biotinylated ANF peptide (Phoenix Peptide). Total cellular protein was quantitated by standard Coomassie dye-binding assay; cells were lysed in protein assay reagent (BioRad) and absorbance at A595 was measured after 1 hour. […] After recovery by centrifugation, cell pellets were washed in PBS, resuspended in 10 ml IsoFlow electrolyte solution (Beckman-Coulter) and analyzed with a Z2 Coulter Particle Counter and Size Analyzer (Beckman-Coulter). Cytotoxicity was quantitated by measuring release of adenylate kinase (AK) from cultured NRVM into culture medium (ToxiLight kit, Cambrex).

beta myosin heavy chain = assay: Beta myosin heavy chain protein quantitation by cytoblot in NRVM; format: cell-based, rat; conditions: 1 μM, 48 h
Experimental: Beta myosin heavy chain protein quantitation by cytoblot. NRVM were plated overnight in 96-well plates. The next day, medium was replaced with serum-free maintenance medium for 4 hours, and test compounds added. Forty-eight hours later, wells were washed twice with […] PBS, aspirating between washes. Cells were fixed by adding […] methanol for 30 min. Methanol was aspirated and wells washed twice with […] PBS. Next, […] blocking solution (PBS+1% BSA) was added for 1 hr at room temperature. Blocking solution was aspirated and […] primary antibody solution added (β-myosin heavy chain hybridoma supernatant+1% BSA) for 1 hr at room temperature. Primary antibody solution was removed and wells washed three times with […] PBS+1% BSA. Wash was aspirated and […] secondary antibody solution added (1:500 dilution of goat […] HRP conjugate in PBS+1% BSA; Southern Biotech #4050-05) for 1 hr at room temperature. Secondary antibody solution was removed and wells washed three times with […] PBS. Wash was aspirated and […] luminol solution added (Pierce #34080). Plates were read in a 96-well luminometer (Packard Fusion).

inhibition at 10 µM (Adenosine A3): 24%
% Inhibition of Binding (Phorbol Ester): 2%
inhibition at 10 µM (Adenosine A1): 17%
SMILES: Cc1c(-c2ccccc2)nc2sc3c(c2c1N)CCCC3 [Compound 18264, 3-Methyl-2-phenyl-5,6,7,8-tetrahydro-benzo[4,5]thieno[2,3-b]pyridin-4-ylamine]
-Fold upreg. of Alpha skeletal actin [1]: 2.1 fold
-Fold upreg. of Atrial natriuretic factor [1]: 2.3 fold
-Fold upreg. of Brain natriuretic factor [1]: 4.1 fold
-Fold upreg. of Myosin heavy chain, embryonic [1]: 29 fold
cell volume [2]: increased
expression of fetal beta isoform of myosin heavy chain (beta myosin heavy chain): significantly up-regulated
